What was measured:
HT-29 cells = assay: In vitro anti-proliferative activity against HT-29 cells (intracellular ATP content, 72 h); type: cell-based; conditions: Homo sapiens, 72 h after dosing
Description: Biological Example 2. In Vitro Anti-Proliferative Activity of the Compounds of the Present Invention Against HT-29 Cells
(§1) HT-29 cells were seeded on a 384-well plate at 3000 cells/well. After overnight adherence culture, DMSO or the compounds serially 1:5-diluted from 5 μM were added. The viability of the cells was assessed 72 h after dosing by measuring the intracellular ATP content. The inhibition percentages of viable cells by the compounds were calculated by comparing with the DMSO group, and the IC50 values were also calculated.

HCT116 cells = assay: In vitro anti-proliferative activity against HCT116 cells (intracellular ATP content, 72 h); type: cell-based; conditions: Homo sapiens, HCT-116, 72 h after dosing
Description: Biological Example 3. In Vitro Anti-Proliferative Activity of the Compounds of the Present Invention Against HCT116 Cells
as §1, with “HCT116” for “HT-29”, “IC 50” for “IC50”

[1] = molecular target: T1, Recombinant human KIF18A (1-467His-tagged) protein (Homo sapiens, UniProt Q8NI77); assay: KIF18A enzyme assay (microtubule-stimulated ATPase activity, ADP-Glo); type: biochemical; conditions: 30 nM KIF18A, 75 μM ATP, 30 μg/mL pig microtubules; read-out: Inhibitory activity against KIF18A IC50
T1 construct: Recombinant human KIF18A (1-467His-tagged) protein; His; made in house
Procedure, shortened: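 Buffer 15 mM Tris pH 7.5, 10 mM MgCl2, 0.01% Pluronic F-68, 1 μM paclitaxel, 30 μg/mL pig microtubules; reactions at room temperature. IC50 from inhibition relative to DMSO.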

T1 sequence (Q8NI77 1-467): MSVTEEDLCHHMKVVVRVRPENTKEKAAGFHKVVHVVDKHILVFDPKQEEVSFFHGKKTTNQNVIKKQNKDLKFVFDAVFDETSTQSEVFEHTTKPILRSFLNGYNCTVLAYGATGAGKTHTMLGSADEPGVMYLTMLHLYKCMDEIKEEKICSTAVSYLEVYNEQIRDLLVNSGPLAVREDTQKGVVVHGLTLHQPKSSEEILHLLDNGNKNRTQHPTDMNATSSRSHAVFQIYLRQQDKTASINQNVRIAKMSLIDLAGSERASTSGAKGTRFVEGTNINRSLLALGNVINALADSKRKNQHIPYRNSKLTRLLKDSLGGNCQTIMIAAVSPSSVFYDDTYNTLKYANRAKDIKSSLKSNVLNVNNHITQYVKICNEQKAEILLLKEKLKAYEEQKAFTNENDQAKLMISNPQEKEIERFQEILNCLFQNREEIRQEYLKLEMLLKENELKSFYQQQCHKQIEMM
T1 sequence (P02550 whole entry partner): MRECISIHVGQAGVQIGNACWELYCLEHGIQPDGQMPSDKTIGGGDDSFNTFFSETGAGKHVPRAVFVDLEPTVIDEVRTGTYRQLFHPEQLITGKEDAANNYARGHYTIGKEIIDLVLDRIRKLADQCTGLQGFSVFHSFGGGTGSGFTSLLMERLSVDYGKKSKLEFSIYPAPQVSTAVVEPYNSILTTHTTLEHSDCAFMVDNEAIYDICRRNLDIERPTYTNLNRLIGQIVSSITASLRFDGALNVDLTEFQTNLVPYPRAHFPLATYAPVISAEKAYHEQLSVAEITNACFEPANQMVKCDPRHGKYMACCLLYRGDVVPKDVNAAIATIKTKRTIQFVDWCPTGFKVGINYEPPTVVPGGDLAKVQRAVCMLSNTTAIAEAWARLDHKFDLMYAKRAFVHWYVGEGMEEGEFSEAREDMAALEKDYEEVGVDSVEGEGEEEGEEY
T1 sequence (P02554 whole entry partner): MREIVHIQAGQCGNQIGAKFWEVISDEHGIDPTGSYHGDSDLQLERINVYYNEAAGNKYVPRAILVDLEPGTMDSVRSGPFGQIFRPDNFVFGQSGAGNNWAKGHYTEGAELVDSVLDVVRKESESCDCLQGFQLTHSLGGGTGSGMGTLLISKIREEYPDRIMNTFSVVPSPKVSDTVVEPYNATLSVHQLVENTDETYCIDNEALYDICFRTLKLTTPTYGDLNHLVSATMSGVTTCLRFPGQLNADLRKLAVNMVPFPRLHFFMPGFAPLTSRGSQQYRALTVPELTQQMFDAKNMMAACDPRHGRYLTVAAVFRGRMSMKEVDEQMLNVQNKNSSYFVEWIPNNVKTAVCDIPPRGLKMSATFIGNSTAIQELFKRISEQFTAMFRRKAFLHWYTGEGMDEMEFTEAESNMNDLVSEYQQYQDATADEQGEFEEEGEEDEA

| Structure (SMILES) | IC50 (HT-29 cells) [nM] | IC50 (HCT116 cells) [nM] | IC50 [1] [nM] |
| --- | --- | --- | --- |
| O=C(Nc1ccc(OC(F)(F)F)c(N2CCC(F)(F)CC2)c1)c1ccc(NS(=O)(=O)CCO)cc1N1CCC2(CC1)CC2 [Compound 655] | 1170 | > 10000 | – |
| Nc1ccc(NC(=O)c2ccc(NS(=O)(=O)CCO)cc2N2CCC3(CC2)CC3)cc1N1CCC(F)(F)CC1 [Compound 701] | 76.7 | > 10000 | – |
| COc1c(C)cc(NC(=O)c2ccc(NS(=O)(=O)CCO)cc2N2CCC3(CC2)CC3)nc1N1CCC(F)(F)CC1 [Compound 836] | 253 | > 10000 | – |
| CNc1ccc(C(=O)Nc2ccc(NS(=O)(=O)CCO)cc2N2CCC3(CC2)CC3)cc1N1CCC(F)(F)CC1 [Compound 704] | 64.2 | > 10000 | – |
| COc1ccc(NC(=O)c2ccc(NS(=O)(=O)CCO)cc2N2CCC(C)(C(F)(F)F)CC2)nc1N1CCC(F)(F)CC1 [Compound 833] | 52.9 | > 10000 | – |
| CN(C)c1ccc(C(=O)Nc2ccc(NS(=O)(=O)CCO)cc2N2CCC3(CC2)CC3)cc1N1CCC(F)(F)CC1 [Compound 703] | 184 | > 10000 | – |
| CNc1ccc(NC(=O)c2ccc(NS(=O)(=O)CCO)cc2N2CCC3(CC2)CC3)nc1N1CCC(F)(F)CC1 [Compound 643] | 34.2 | > 10000 | – |
| CN(C)c1ccc(NC(=O)c2ccc(NS(=O)(=O)CCO)cc2N2CCC3(CC2)CC3)nc1N1CCC(F)(F)CC1 [Compound 647] | 334 | > 10000 | – |
| COc1ccc(NC(=O)c2ccc(NS(=O)(=O)CCO)cc2N2CCC3(CC2)CC3)nc1NCCC(F)(F)F [Compound 835] | 70.7 | > 10000 | – |
| CN(C)c1ccc(C(=O)Nc2ccc(NS(=O)(=O)CCO)cc2N2CCC3(CC2)CC3)nc1N1CCC(F)(F)CC1 [Compound 705] | 146 | > 10000 | – |
| COc1ccc(NC(=O)c2ccc(S(=O)(=O)N[C@H](C)CO)cc2N2CCC3(CC2)CC3)nc1N1CCC(F)(F)CC1 [Compound 286] | – | – | ≤ 100 |
| COc1ccc(C(=O)Nc2cnc(S(=O)(=O)NCCO)cc2N2CCC3(CC2)CC3)nc1OCCC(F)(F)F [Compound 373] | – | – | ≤ 100 |
| CC1(F)CCN(c2cc(NC(=O)c3cnc(NS(=O)(=O)CCO)cc3N3CCC4(CC3)CC4)ccc2[N+](=O)[O-])C1 (stereo not drawn) [Compound 104] | – | – | ≤ 100 |
| O=C(Nc1ccc(NS(=O)(=O)CCO)cc1N1CCC2(CC1)CC2)c1ccc([N+](=O)[O-])c(N2CCC(F)CC2)c1 [Compound 41] | – | – | ≤ 100 |
| C[C@@H]1CN(c2nc(C(=O)Nc3cnc(NS(=O)(=O)[C@H](C)CO)cc3N3CCC4(CC3)CC4)ccc2[N+](=O)[O-])CCO1 [Compound 240] | – | – | ≤ 100 |
| O=C(Nc1ccc(S(=O)(=O)NCCO)cc1N1CCC2(CC1)CC2)c1ccc([N+](=O)[O-])c(N2CCC(F)CC2)n1 [Compound 185] | – | – | 100 to 500 |
| O=C(Nc1ccc([N+](=O)[O-])c(N2CCC3(CC3)C2)c1)c1ccc(S(=O)(=O)NCCO)cc1N1CCC2(CC1)CC2 [Compound 22] | – | – | ≤ 100 |
| O=C(Nc1ccc(OCF)c(OC2CCC2)n1)c1ccc(NS(=O)(=O)CCO)cc1N1CCC2(CC1)CC2 [Compound 423] | – | – | ≤ 100 |
| CSc1ccc(NC(=O)c2cnc(NS(=O)(=O)CCO)cc2N2CCC3(CC2)CC3)cc1NC(C)(C)CO [Compound 619] | – | – | ≤ 100 |

| Structure (SMILES) | IC50 (HT-29 cells) [nM] | IC50 (HCT116 cells) [nM] | IC50 [1] [nM] |
| --- | --- | --- | --- |
| C[C@@H]1CN(c2cc(NC(=O)c3ccc(NS(=O)(=O)CCO)cc3N3CCC4(CC3)CC4)ccc2[N+](=O)[O-])CCO1 [Compound 2] | – | – | ≤ 100 |
| C[C@@H](CO)NS(=O)(=O)c1cc(N2CCC3(CC2)CC3)c(C(=O)Nc2ccc([N+](=O)[O-])c(N3CCC(F)(F)CC3)n2)cn1 [Compound 157] | – | – | ≤ 100 |
| C[C@@H](CO)S(=O)(=O)Nc1ccc(C(=O)Nc2ccc(OCF)c(N3CCC(F)(F)CC3)c2)c(N2CCC3(CC2)CC3)c1 [Compound 397] | – | – | ≤ 100 |
| O=C(Nc1ccc(NS(=O)(=O)CCO)cc1N1CCC2(CC1)CC2)c1ccc(OCF)c(OCCC(F)(F)F)c1 [Compound 517] | – | – | ≤ 100 |
| CSc1ccc(NC(=O)c2ccc(NS(=O)(=O)CCO)cc2N2CCC3(CC2)CC3)nc1N1CCC(F)CC1 [Compound 601] | – | – | ≤ 100 |
| O=C(Nc1cnc(S(=O)(=O)NCCO)cc1N1CCC2(CC1)CC2)c1ccc([N+](=O)[O-])c(OC2CCC2)c1 [Compound 215] | – | – | 100 to 500 |
| CSc1ccc(NC(=O)c2cnc(NS(=O)(=O)CCO)cc2N2CCC3(CC2)CC3)nc1N1CCC(C)(F)C1 (stereo not drawn) [Compound 632] | – | – | ≤ 100 |
| CC(C)(CO)Nc1cc(C(=O)Nc2ccc(NS(=O)(=O)CCO)cc2N2CCC3(CC2)CC3)ccc1[N+](=O)[O-] [Compound 43] | – | – | ≤ 100 |
| O=C(Nc1ccc(OCF)c(N2CC3CC3C2)c1)c1cnc(S(=O)(=O)NCCO)cc1N1CCC2(CC1)CC2 (stereo not drawn) [Compound 474] | – | – | ≤ 100 |
| O=C(Nc1ccc(NS(=O)(=O)CCO)cc1N1CCC2(CC1)CC2)c1ccc(OCF)c(OC2CCC2)n1 [Compound 551] | – | – | ≤ 100 |
| C[C@H]1CN(c2nc(C(=O)Nc3ccc(S(=O)(=O)NCCO)cc3N3CCC4(CC3)CC4)ccc2[N+](=O)[O-])CCO1 [Compound 179] | – | – | 100 to 500 |
| CC(C)(CO)Nc1nc(C(=O)Nc2ccc(NS(=O)(=O)CCO)cc2N2CCC3(CC2)CC3)ccc1[N+](=O)[O-] [Compound 171] | – | – | ≤ 100 |
| C[C@H](CO)NS(=O)(=O)c1cc(N2CCC3(CC2)CC3)c(NC(=O)c2ccc([N+](=O)[O-])c(N3CCO[C@H](C)C3)c2)cn1 [Compound 224] | – | – | 100 to 500 |
| CSc1ccc(NC(=O)c2cnc(NS(=O)(=O)CCO)cc2N2CCC3(CC2)CC3)cc1N1CCC(C)(F)C1 (stereo not drawn) [Compound 616] | – | – | ≤ 100 |
| CC1(F)CCN(c2nc(NC(=O)c3cnc(NS(=O)(=O)CCO)cc3N3CCC4(CC3)CC4)ccc2OCF)C1 (stereo not drawn) [Compound 488] | – | – | ≤ 100 |
| C[C@H]1CN(c2nc(NC(=O)c3cnc(S(=O)(=O)NCCO)cc3N3CCC4(CC3)CC4)ccc2[N+](=O)[O-])CCO1 [Compound 147] | – | – | ≤ 100 |
| COc1ccc(NC(=O)c2cnc(S(=O)(=O)NCCO)cc2N2CCC3(CC2)CC3)nc1OCCC(F)(F)F [Compound 309] | – | – | ≤ 100 |
| O=C(Nc1ccc(NS(=O)(=O)CCO)cc1N1CCC2(CC1)CC2)c1ccc([N+](=O)[O-])c(OC2CCC2)n1 [Compound 167] | – | – | ≤ 100 |
| CC1(F)CCN(c2nc(C(=O)Nc3cnc(S(=O)(=O)NCCO)cc3N3CCC4(CC3)CC4)ccc2[N+](=O)[O-])C1 (stereo not drawn) [Compound 248] | – | – | 100 to 500 |

| Structure (SMILES) | IC50 (HT-29 cells) [nM] | IC50 (HCT116 cells) [nM] | IC50 [1] [nM] |
| --- | --- | --- | --- |
| C[C@H](CO)NS(=O)(=O)c1cc(N2CCC3(CC2)CC3)c(C(=O)Nc2ccc(OCF)c(N3CCC(F)(F)CC3)c2)cn1 [Compound 478] | – | – | ≤ 100 |
| O=C(Nc1ccc(OCF)c(N2CCC(F)CC2)n1)c1cnc(S(=O)(=O)NCCO)cc1N1CCC2(CC1)CC2 [Compound 505] | – | – | ≤ 100 |
| O=C(Nc1cnc(S(=O)(=O)NCCO)cc1N1CCC2(CC1)CC2)c1ccc([N+](=O)[O-])c(N2CCC(F)CC2)n1 [Compound 249] | – | – | 100 to 500 |
| C[C@H](CO)NS(=O)(=O)c1ccc(NC(=O)c2ccc([N+](=O)[O-])c(N3CCC(F)(F)CC3)c2)c(N2CCC3(CC2)CC3)c1 [Compound 62] | – | – | 100 to 500 |
| COc1ccc(C(=O)Nc2ccc(NS(=O)(=O)CCO)cc2N2CCC3(CC2)CC3)nc1N1CC(F)(F)C1 [Compound 324] | – | – | ≤ 100 |
| COc1ccc(NC(=O)c2cnc(NS(=O)(=O)CCO)cc2N2CCC3(CC2)CC3)nc1NC(C)(C)CO [Compound 299] | – | – | ≤ 100 |
| CSc1ccc(NC(=O)c2ccc(NS(=O)(=O)[C@H](C)CO)cc2N2CCC3(CC2)CC3)cc1N1CCO[C@H](C)C1 [Compound 592] | – | – | ≤ 100 |
| CC(C)(CO)Nc1cc(NC(=O)c2ccc(NS(=O)(=O)CCO)cc2N2CCC3(CC2)CC3)ccc1OCF [Compound 395] | – | – | ≤ 100 |
| O=C(Nc1ccc(NS(=O)(=O)CCO)cc1N1CCC2(CC1)CC2)c1ccc(OCF)c(N2CC3CC3C2)c1 (stereo not drawn) [Compound 522] | – | – | ≤ 100 |
| C[C@@H]1CN(c2nc(NC(=O)c3ccc(NS(=O)(=O)CCO)cc3N3CCC4(CC3)CC4)ccc2OCF)CCO1 [Compound 418] | – | – | ≤ 100 |
| COc1ccc(C(=O)Nc2ccc(S(=O)(=O)NCCO)cc2N2CCC3(CC2)CC3)nc1N1CCC(F)CC1 [Compound 345] | – | – | ≤ 100 |
| O=C(Nc1ccc(S(=O)(=O)NCCO)cc1N1CCC2(CC1)CC2)c1ccc([N+](=O)[O-])c(N2CCOCC2)n1 [Compound 188] | – | – | 100 to 500 |
| COc1ccc(C(=O)Nc2cnc(NS(=O)(=O)CCO)cc2N2CCC3(CC2)CC3)nc1N1CCOCC1 [Compound 364] | – | – | ≤ 100 |
| COc1ccc(NC(=O)c2cnc(S(=O)(=O)NCCO)cc2N2CCC3(CC2)CC3)nc1N1CCC2(CC2)C1 [Compound 310] | – | – | ≤ 100 |
| CC(C)(CO)Nc1nc(NC(=O)c2cnc(S(=O)(=O)NCCO)cc2N2CCC3(CC2)CC3)ccc1[N+](=O)[O-] [Compound 155] | – | – | ≤ 100 |
| O=C(Nc1cnc(S(=O)(=O)NCCO)cc1N1CCC2(CC1)CC2)c1ccc([N+](=O)[O-])c(OC2CCC2)n1 [Compound 247] | – | – | 100 to 500 |
| O=C(Nc1ccc(OCF)c(OC2CCC2)c1)c1cnc(S(=O)(=O)NCCO)cc1N1CCC2(CC1)CC2 [Compound 471] | – | – | ≤ 100 |
| O=C(Nc1ccc(OCF)c(N2CCC3(CC3)C2)n1)c1ccc(NS(=O)(=O)CCO)cc1N1CCC2(CC1)CC2 [Compound 422] | – | – | ≤ 100 |

Source: US20260158017A1, “KIF18A INHIBITOR” (WIGEN BIOMEDICINE TECHNOLOGY (SHANGHAI) CO., LTD., priority 2021, published 2026)
